For one assay, the target named is 5-HT2A receptor (Homo sapiens, UniProt P28223). In words: Fluo-8 calcium release assay, serotonin with and without compound (positive allosteric modulation), +5-HT2A cells. It counts as cell-based. As to conditions: serotonin 3 uM with compound 3 uM, FIG. 8C. The source says: (§1) Cell lines for pharmacology assays. CHO-K1/Galpha15 (GenScript, M00257) (−5-HT2A) and CHO-K1/5-HT2A (GenScript, M00250) (+5-HT2A) cells lines were used in both toxicology/growth inhibition (MTT) and calcium release assays. Briefly, CHO-K1/Galpha15 is a control cell line that constitutively expresses Galpha15 which is a promiscuous Gq protein. It is engineered as a host cell, allowing transfected receptor(s) to signal through the Gq signal transduction pathway and mobilize intracellular calcium from the endoplasmic reticulum (ER). These control cells lack any transgene encoding 5-HT2A receptors, thus preventing calcium mobilization in response to 5-HT2A activation. Conversely, CHO-K1/5-HT2A cells stably express 5-HT2A receptor in the CHO-K1 host background. […]
5-HT2A receptor, sequence (P28223 whole entry): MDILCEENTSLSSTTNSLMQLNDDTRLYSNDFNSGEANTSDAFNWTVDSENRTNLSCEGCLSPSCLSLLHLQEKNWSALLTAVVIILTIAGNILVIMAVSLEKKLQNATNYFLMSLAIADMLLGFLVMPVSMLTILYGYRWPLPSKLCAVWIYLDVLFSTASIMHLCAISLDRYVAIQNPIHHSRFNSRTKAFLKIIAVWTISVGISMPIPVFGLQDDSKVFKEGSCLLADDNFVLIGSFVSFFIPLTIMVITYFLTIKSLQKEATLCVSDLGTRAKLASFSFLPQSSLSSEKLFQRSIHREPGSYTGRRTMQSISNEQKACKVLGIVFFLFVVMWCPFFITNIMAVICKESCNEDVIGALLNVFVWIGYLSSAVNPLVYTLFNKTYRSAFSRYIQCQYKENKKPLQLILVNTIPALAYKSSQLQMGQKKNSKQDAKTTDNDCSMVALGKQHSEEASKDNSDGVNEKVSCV
(§2) Increase in cytosolic calcium concentration by 5-HT2A activation and assessment of modulation. Changes in intracellular calcium concentration due to the treatment with assay compounds was measured using Fluo-8 dye (Abcam, #ab112129) according to the manufacturer's instructions. […] Fluorescence (ex 490 nm/em 525 nm) obtained after the addition of molecules was expressed relative to values obtained before addition of the molecules (relative Fluo-8 fluorescence=Fmax/F0, where Fmax=maximum fluorescence and F0=baseline fluorescence). Fluorescence intensities were measured using a Spectramax ID3 plate reader (www.moleculardevices.com). […]

The test system of assay [1] is CHO-K1/Galpha15 cells lacking 5-HT2A. The experiment in a line: Fluo-8 calcium release control assay in -5-HT2A cells. It counts as cell-based, Chinese Hamster. Conditions: FIG. 8D panel A.
Excerpt: as §1, §2

For the compound `CC(=O)NCCc1c[nH]c2c(C)ccc(O)c12` [compound (IV), N-[2-(4-hydroxy-7-methyl-1H-indol-3-yl)ethyl]acetamide], on 5-HT2A receptor, the “time-dependent calcium flux (relative fluorescence, RFU) in response to serotonin with compound vs serotonin alone” value is on record as “elevated flux”.

As for `NCCc1c[nH]c2ccc(O)cc12` [serotonin, 5-hydroxytryptamine], the “calcium response (relative Fluo-8 fluorescence)” value in assay [1] is on record as “did not exhibit a response”.

These data come from US12187679B2, “Hydroxylated psilocybin derivatives and methods of using” (Enveric Biosciences Canada Inc., priority 2020, dated 2025).
